From publication PMC5841205, “Pharmacological targeting of apelin impairs glioblastoma growth” (Brain, 2017) come the findings set out here.

The structures appear in SMILES notation. Positions of bridges follow the written chain, without caps; N, C: chain ends. Residues, ends and D or L forms follow the SMILES beside them.

For one data set, the system named is tumour-bearing mice. As to the kind of experiment: Cardiac frequency, blood pressure and glycaemia, MM54. It counts as in vivo, mouse. Particulars: MM54 2 mg/kg bi-weekly for 4 weeks. The method, then:
To test potential toxic effects of MM54 and MM193 in vivo, mice were administered 2 mg/kg of MM54, MM193 or vehicle bi-weekly for 4 weeks. At sacrifice, blood was taken for analysis and the heart, kidney, aorta and liver removed, weighed and fixed for histological analysis. For the glycaemic study, animals were starved for 6 h prior to sacrifice.
Figure 6 Pharmacological inhibition of APLNR by MM54 reduces xenograft progression. (A) Tumour-bearing mice were fasted for 6 h and the effect of either MM54 (2 mg/kg) or DMSO vehicle treatment on glycaemia measured via blood analysis. (B) Cardiac frequency and blood pressure were measured in random-fed tumour-bearing animals. (C) Nude mice were implanted with GSC#9 (5 × 10^5 cells) in each flank and treated with either DMSO vehicle or the APLNR antagonist (MM54, 2 mg/kg) bi-weekly from Week 4. Tumour volume was measured weekly until Week 11. n = 10/group. (D and E) Cryosections from GSC tumours were assessed for PECAM (red), Ki67 (green), NESTIN (green), SOX2 (green) and apoptosis (TUNEL). (F) Tumour sections were assessed for pS9-GSK3β staining in DMSO vehicle- and MM54-treated animals. Scale bars = 40 µm. […] All panels are representative of n = 3, unless specified.

The nature of data set [1]: Brain pharmacokinetics after intraperitoneal administration. It counts as in vivo, mouse. The method, then: B. MM54 compound was solubilized in water and administered intraperitoneally (IP) at the dose of 3.6 mg/kg to healthy mice.
Mice (3/group) were sacrificed at 10 min, 30 min, 60 min, 2h, 4h, 6h, 8h and 24h post-injection. Plasma and brains were collected and further processed for LC-MS/MS analysis. B/P index is 0.24. AUC is area under the curve. n.d. stands for ‘not able to be

Where [2] appears, read: healthy mice, IP 3.6 mg/kg in water, 3/group, LC-MS/MS.

Consider `CC(C)C[C@@H]1NC(=O)[C@H](CCCNC(=N)N)NC(=O)[C@@H]2CCCN2C(=O)[C@H](CCCNC(=N)N)NC(=O)[C@@H](NC(=O)[C@H](Cc2c[nH]cn2)NC(=O)[C@H](CCCCN)NC(=O)[C@@H]2CSSC[C@H](N)C(=O)N[C@@H](CCCNC(=N)N)C(=O)N3CCC[C@H]3C(=O)N[C@@H](CCCNC(=N)N)C(=O)N[C@@H](CC(C)C)C(=O)N2)CSSC[C@@H](C(=O)O)NC1=O` [MM54, cyclo(1–6)CRPRLC-KH-cyclo(9–14)CRPRLC] (H-CRPRLCKHCRPRLC-OH; disulfide 1-6, 9-14), for which the “cardiac frequency, blood pressure and glycaemic index” value in the data set with tumour-bearing mice is recorded as “did not induce alterations to these parameters”. For the same compound, in data set [1] (healthy animals, intraperitoneal), the detection in brain entry was “detected in the plasma and the brain”. In data set [1] (setting [2]), the “Cmax (µM), brain” value came out at 0.14 µM; the “Cmax (µg.ml-1), brain” value was 0.26 µg/mL; the “Time Cmax, brain” value stood at 10 min. Also, in data set [1] (mouse, healthy mice, IP 3.6 mg/kg in water, brain vs plasma, read-out: B/P index), the Kp is 0.24.
